Data from patent publication US11285226B2, “Aryl ethene derivative and pharmaceutical composition containing same as active ingredient” (priority 2016, dated 2022).
Read-outs that look alike come from different tables or passages of the source.

What was measured:
[1] = assay type: in vitro ADME, human; conditions: 1 μM, 30 minutes, 37° C.
Description: 2) Microsomal Stability Evaluation
(§2) Four liver microsomes (Human, Dog, Rat, Mouse 0.5 mg/ml) with a 0.1 M phosphate buffer solution (pH 7.4), and the arylethene derivative of the present invention were added to a concentration of 1 μM, culturing was performed at 37° C. for 5 minutes in advance, a NADPH regeneration system solution was added thereto, and culturing was performed at 37° C. for 30 minutes. Thereafter, in order to complete the reaction, an acetonitrile solution containing an internal standard material (chlorpropamide) was added thereto, centrifugation (14,000 rpm, 4° C.) was performed for 5 minutes, and a supernatant was injected into a LC-MS/MS system to analyze the substrate drug, thereby evaluating metabolism stability to the arylethene derivative of the present invention.

[2] = assay type: in vitro ADME, dog; conditions: 1 μM, 30 minutes, 37° C.
Description: 2) Microsomal Stability Evaluation
as §2

[3] = target: ERR alpha LBD (Homo sapiens (Human), UniProt P11474); conditions: read-out: Binding Assay, IC50 ERRα
Description: (§3) The arylethene derivative of the present invention was sequentially added to a 384 well plate from a concentration of 10 μM to a final concentration of two-fold dilution. […] After all reagents were added, a reaction was carried out with gentle shaking at 20° C. for 1 hour, and after the reaction, a binding activity was measured by a TR-FRET method.

[4] = target: CYP1A2 (Homo sapiens (Human), UniProt P05177); test: Cytochrome P450 activity inhibition, CYP1A2; assay type: in vitro ADME; conditions: 10 μM, human liver microsomes
From the text: (§1) 1) Cytochrome P450 (CYP450) Activity Inhibition Evaluation

[5] = target: CYP2C9 (Homo sapiens (Human), UniProt P11712); test: Cytochrome P450 activity inhibition, CYP2C9; assay type: in vitro ADME; conditions: 10 μM, human liver microsomes
From the text: as §1

[6] = target: CYP2C19 (Homo sapiens (Human), UniProt P33261); test: Cytochrome P450 activity inhibition, CYP2C19; assay type: in vitro ADME; conditions: 10 μM, human liver microsomes
From the text: as §1

[7] = target: CYP2D6 (Homo sapiens (Human), UniProt P10635); test: Cytochrome P450 activity inhibition, CYP2D6; assay type: in vitro ADME; conditions: 10 μM, human liver microsomes
From the text: as §1

[8] = target: CYP3A4 (Homo sapiens (Human), UniProt P08684); test: Cytochrome P450 activity inhibition, CYP3A4; assay type: in vitro ADME; conditions: 10 μM, human liver microsomes
Description: Thereafter, in order to complete the reaction, an acetonitrile solution containing an internal standard material (Terfenadine) was added thereto, centrifugation (14,000 rpm, 4° C.) was performed for 5 minutes, and a supernatant was injected into a LC-MS/MS system to analyze the metabolites of the substrate drug, thereby evaluating drug metabolism enzyme inhibition by the arylethene derivative of the present invention.

[9] = system: ERRγ; assay type: cell-based; conditions: for Functional Assay, Cpds/Ref 5182: activity relative to reference compound GSK5182; for Functional Assay at 10 μM (% of control), Cpds: AD293, 24 hours
Description: AD293 was cultured in a 24-well plate for 24 hours, using a DMEM High glucose culture medium (Hyclone, USA) to which 0.5% FBS was added at a concentration of 9×10^4/well. The culture medium was replaced with a DMEM High glucose culture medium to which 10% FBS was added, treatment was performed with a mixture of a TransIT-LT1 transfection reagent (Minis, USA) and pCMX-Gal4-ERRγ, pFR-luciferase reporter plasmid, pCMV-β-gal, and culturing was performed for 24 hours. Thereafter, a luciferase activity assay and a β-gal assay were performed, respectively, with a lysate obtained after treatment with the arylethene derivative of the present invention for 24 hours. All results were derived from three or more independent repetitive experiments.

[10] = assay type: in vitro ADME, rat; conditions: 1 μM, 30 minutes, 37° C.
Description: 2) Microsomal Stability Evaluation
as §2

[11] = assay type: in vivo; conditions: rat; for BA: PO 10 mg/kg vs IV 1 mg/kg
Description: An oral administration group fasts the day before.
Blood of each animal is collected at 0 hour.
Into a tail vein of an intravenous administration group (IV), a drug is injected at a dose of 1 mg/kg (syringe).
To an oral administration group (PO), a drug is orally administered at a dose of 10 mg/kg (oral zondec)
After administration, blood of the intravenous administration group was collected through a jugular vein 8 times at 0.08, 0.25, 0.5, 1, 2, 4, 6, and 8 hours. One collected blood amount is 400 to 500 ul.
After administration, blood of the oral administration group was collected through a jugular vein 6 times at 0.25, 0.5, 1, 4, 6 and 8 hours. One collected blood amount is 400 to 500 ul.
Supernatant plasma is collected by a centrifuge.
The supernatant plasma was injected into a LC-MS/MS system and the drug is analyzed.

[12] = target: ER alpha ligand-binding domain (LBD) (Homo sapiens (Human), UniProt P03372); conditions: beta-estradiol 4 nM as agonist; read-out: Binding Assay, IC50 ERα
Description: as §3

[13] = assay type: in vitro ADME; conditions: PBS pH 7.4, 25° C., 5 hours
Description: 3) Parallel Artificial Membrane Permeability Assay (PAMPA) Evaluation
PAMPA is a method which has been developed for testing cell membrane permeability of a material in a test tube, and has been performed using a lipid tri-layer PVDF membrane available from Corning Gentest (NY, US), the used reagents were all purchased from Sigma (MO, US). First, a test material is diluted in PBS (pH 7.4) to a final concentration of 10 mM, 300 mL of the solution is added to the bottom well of a 96-transwell equipped with a PVDF membrane, and 200 mL of PBS is added to the upper well. Then, a plate is reacted at 25° C. for 5 hours, 20 mL of the solution in each well is transferred to a new container, and 80 mL of acetonitrile containing an internal standard material (4 mM chloropropamide) is added thereto. A concentration of the material in the solution is analyzed using LC-MS/MS (ThermoFisher Scientific, MO, US), and the transmittance of the material is calculated according to the equation reported in the reference document. • Reference document: A novel design of artificial membrane for improving the PAMPA model.

[14] = assay type: in vitro ADME, mouse; conditions: 1 μM, 30 minutes, 37° C.
Description: 2) Microsomal Stability Evaluation
as §2

[15] = system: CAL-62 cells; test: 125I uptake assay in anaplastic thyroid cancer cells; assay type: cell-based; conditions: co-incubated with compound 18a-treated CAL62 cells

CYP1A2, sequence (P05177 whole entry): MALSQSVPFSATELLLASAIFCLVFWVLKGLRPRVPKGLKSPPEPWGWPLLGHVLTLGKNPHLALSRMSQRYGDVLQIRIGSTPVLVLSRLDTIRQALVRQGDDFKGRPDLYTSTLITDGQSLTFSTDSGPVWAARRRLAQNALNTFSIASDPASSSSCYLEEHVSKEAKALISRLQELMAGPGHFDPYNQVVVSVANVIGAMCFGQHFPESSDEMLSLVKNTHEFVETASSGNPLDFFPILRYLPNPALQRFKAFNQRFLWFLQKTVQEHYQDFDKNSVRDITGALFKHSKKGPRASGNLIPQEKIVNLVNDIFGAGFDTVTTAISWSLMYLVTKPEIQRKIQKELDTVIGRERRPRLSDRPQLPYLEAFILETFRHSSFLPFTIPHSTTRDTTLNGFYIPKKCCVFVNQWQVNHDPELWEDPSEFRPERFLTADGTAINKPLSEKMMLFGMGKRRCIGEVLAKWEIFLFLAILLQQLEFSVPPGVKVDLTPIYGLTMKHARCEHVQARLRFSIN
CYP3A4, sequence (P08684 whole entry): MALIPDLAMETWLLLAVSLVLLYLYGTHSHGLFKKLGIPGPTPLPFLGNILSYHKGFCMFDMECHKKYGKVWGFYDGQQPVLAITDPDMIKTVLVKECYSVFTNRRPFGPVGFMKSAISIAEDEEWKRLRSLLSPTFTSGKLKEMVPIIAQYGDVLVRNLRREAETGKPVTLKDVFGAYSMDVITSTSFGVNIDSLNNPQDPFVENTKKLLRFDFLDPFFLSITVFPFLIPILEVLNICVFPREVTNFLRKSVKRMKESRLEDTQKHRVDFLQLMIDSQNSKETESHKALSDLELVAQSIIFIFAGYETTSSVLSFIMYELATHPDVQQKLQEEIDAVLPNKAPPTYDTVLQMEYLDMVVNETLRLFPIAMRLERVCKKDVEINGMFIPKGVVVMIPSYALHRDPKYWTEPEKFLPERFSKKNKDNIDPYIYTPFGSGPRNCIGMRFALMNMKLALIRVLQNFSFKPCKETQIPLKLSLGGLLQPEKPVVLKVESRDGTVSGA
CYP2C19, sequence (P33261 whole entry): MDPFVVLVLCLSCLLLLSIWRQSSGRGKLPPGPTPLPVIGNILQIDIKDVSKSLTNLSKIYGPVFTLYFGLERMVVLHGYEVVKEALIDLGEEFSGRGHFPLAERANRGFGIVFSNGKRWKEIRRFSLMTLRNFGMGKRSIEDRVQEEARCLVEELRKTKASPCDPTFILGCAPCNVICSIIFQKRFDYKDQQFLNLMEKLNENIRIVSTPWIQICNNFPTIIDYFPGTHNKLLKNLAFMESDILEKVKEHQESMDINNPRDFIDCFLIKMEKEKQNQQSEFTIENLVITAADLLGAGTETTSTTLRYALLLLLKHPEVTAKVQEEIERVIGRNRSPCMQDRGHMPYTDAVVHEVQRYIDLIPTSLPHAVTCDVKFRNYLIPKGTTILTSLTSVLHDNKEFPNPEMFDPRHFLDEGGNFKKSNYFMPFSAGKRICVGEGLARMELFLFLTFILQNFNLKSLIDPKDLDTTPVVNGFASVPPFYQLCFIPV
ERR alpha LBD, sequence (P11474 193-421, species assumed): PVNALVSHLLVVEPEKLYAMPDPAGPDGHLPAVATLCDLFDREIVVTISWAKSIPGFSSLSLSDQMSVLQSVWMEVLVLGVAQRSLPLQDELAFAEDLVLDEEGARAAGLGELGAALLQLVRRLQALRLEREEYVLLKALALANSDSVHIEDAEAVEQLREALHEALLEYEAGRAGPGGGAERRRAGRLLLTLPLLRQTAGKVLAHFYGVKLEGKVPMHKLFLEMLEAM
CYP2C9, sequence (P11712 whole entry): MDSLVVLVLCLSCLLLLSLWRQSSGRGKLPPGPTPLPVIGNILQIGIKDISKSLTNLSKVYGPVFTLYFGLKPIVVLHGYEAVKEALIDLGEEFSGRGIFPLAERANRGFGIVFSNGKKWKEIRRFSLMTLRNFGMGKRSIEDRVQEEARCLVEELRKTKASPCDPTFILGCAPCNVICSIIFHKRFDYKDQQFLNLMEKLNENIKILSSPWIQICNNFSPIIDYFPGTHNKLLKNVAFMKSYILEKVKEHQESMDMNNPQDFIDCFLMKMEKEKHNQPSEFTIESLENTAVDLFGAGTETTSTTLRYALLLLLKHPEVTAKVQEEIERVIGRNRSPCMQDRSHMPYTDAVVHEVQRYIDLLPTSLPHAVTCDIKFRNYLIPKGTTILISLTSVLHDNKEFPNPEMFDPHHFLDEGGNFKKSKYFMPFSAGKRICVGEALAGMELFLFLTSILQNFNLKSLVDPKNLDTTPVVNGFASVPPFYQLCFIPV
CYP2D6, sequence (P10635 whole entry): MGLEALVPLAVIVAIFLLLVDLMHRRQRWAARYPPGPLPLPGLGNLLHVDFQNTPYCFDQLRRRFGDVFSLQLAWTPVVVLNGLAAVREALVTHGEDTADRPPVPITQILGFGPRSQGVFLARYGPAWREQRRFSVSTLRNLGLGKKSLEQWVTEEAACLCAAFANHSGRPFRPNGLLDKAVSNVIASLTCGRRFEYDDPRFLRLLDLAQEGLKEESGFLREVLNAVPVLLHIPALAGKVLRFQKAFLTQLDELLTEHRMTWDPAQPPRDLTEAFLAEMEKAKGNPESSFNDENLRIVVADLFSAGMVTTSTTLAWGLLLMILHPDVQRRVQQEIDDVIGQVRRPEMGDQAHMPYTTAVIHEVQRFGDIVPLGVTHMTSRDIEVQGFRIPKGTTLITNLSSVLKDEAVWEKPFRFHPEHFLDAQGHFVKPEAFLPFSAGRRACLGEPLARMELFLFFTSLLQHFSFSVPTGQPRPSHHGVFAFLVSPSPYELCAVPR
ER alpha ligand-binding domain (LBD), sequence (P03372 whole entry, looked up, the tested form may be a part): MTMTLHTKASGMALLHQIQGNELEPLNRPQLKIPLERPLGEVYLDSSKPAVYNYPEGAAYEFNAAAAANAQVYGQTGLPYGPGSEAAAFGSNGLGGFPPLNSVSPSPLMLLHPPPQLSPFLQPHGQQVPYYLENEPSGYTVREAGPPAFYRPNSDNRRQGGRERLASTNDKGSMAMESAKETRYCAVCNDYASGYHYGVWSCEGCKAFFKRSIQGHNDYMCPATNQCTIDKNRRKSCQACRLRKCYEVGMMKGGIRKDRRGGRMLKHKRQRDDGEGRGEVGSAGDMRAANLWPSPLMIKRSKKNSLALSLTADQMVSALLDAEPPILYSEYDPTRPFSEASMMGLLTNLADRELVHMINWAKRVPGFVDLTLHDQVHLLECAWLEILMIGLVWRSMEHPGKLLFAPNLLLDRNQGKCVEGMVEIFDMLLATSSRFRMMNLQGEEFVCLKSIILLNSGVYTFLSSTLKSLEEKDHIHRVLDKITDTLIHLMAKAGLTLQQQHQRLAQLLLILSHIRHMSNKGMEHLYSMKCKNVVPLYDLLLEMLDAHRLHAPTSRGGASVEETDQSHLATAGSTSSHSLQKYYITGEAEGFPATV

CC(C)N1CCC(c2ccc(/C(=C(/CCCO)c3ccccc3)c3cccc(O)c3)cc2)C1 (racemic) [Compound 22u]
MS (Microsomal Stability) (%) human [1]: 40.0% | MS (Microsomal Stability) (%) dog [2]: 10.0%

CN1CCC[C@H]1COc1ccc(/C(=C(/CCCO)c2ccccc2)c2ccc(O)cc2)cc1 [Compound 6h]
IC50 [3]: > 10 µM | CYP inhibition (% of control) 1A2 [4]: 103 % of control | CYP inhibition (% of control) 2C9 [5]: 62.8 % of control | CYP inhibition (% of control) 2C19 [6]: 83.2 % of control | CYP inhibition (% of control) 2D6 [7]: 90.7 % of control | CYP inhibition (% of control) 3A4 [8]: 75.4 % of control

Cl.Cl.OCCC/C(=C(\c1ccc(O)cc1)c1ccc(OCCN2CCNCC2)cc1)c1ccccc1 [Compound 7a, (Z)-4-(5-hydroxy-2-phenyl-1-(4-(2-(piperazin-1-yl)ethoxy)phenyl)pent-1-en-1-yl)phenol 2hydrochloride Salt]
Functional Assay, Cpds/Ref 5182 [9]: 0.86 | MS (Microsomal Stability) (%) human [1]: 49.0%

Cc1ccc(/C(=C(\CCCO)c2ccccc2)c2ccc(N3CCN(C(C)C)CC3)cc2)cc1 [Compound 18b]
Functional Assay, Cpds/Ref 5182 [9]: 0.78 | CYP inhibition (% of control) 3A4 [8]: 53 % of control | MS (Microsomal Stability) (%) rat [10]: 40.0% | BA [11]: 8.7%

CN1CCN(c2ccc(/C(=C(/CCCO)c3ccccc3)c3ccc(Br)cc3)cc2)CC1 [Compound 18e]
IC50 [3]: > 10 µM | IC50 [12]: > 10 µM | Functional Assay at 10 μM (% of control), Cpds [9]: 2.6 % of control | Functional Assay, Cpds/Ref 5182 [9]: 0.89 | CYP inhibition (% of control) 1A2 [4]: >100 % of control | CYP inhibition (% of control) 2C9 [5]: 91.3 % of control | CYP inhibition (% of control) 2C19 [6]: 84.6 % of control | CYP inhibition (% of control) 2D6 [7]: >100 % of control | CYP inhibition (% of control) 3A4 [8]: 84 % of control | Permeability Pampa [13]: 1.11 10^−6 cm/s | AUCINF ([11]; IV 1 mg/kg): 0.06 μMh | AUCall ([11]; IV 1 mg/kg): 0.06 μMh | Vss ([11]; IV 1 mg/kg): 39.1 L/kg | t1/2 ([11]; IV 1 mg/kg): 0.8 h | AUCINF ([11]; PO 10 mg/kg): 0.09 μMh | AUCall ([11]; PO 10 mg/kg): 0.07 μMh | Cmax ([11]; PO 10 mg/kg): 10 nM | Tmax ([11]; PO 10 mg/kg): 2.8 h | BA [11]: 11.5%

CC(C)N1CCN(c2ccc(/C(=C(/CCCO)c3ccccc3)c3ccc(Br)cc3)cc2)CC1 [Compound 18h]
MS (Microsomal Stability) (%) human [1]: >100%

CCN1CCN(c2ccc(/C(=C(/CCCO)c3ccccc3)c3ccc(C)cc3)cc2)CC1 [Compound 18j]
CYP inhibition (% of control) 1A2 [4]: >100 % of control | CYP inhibition (% of control) 2C9 [5]: 87 % of control | CYP inhibition (% of control) 2C19 [6]: 74 % of control | MS (Microsomal Stability) (%) dog [2]: 58.0%

Cc1ccc(/C(=C(\CCCO)c2ccccc2)c2ccc(N3CCNCC3)cc2)cc1 [Compound 20b]
Functional Assay, Cpds/Ref 5182 [9]: 0.88 | MS (Microsomal Stability) (%) human [1]: 44% | MS (Microsomal Stability) (%) dog [2]: 58%

Cc1ccc(/C(=C(\CCCO)c2ccccc2)c2ccc(C3CNC3)cc2)cc1 [Compound 20d]
Functional Assay, Cpds/Ref 5182 [9]: 0.81 | MS (Microsomal Stability) (%) human [1]: 83% | MS (Microsomal Stability) (%) rat [10]: 54%

Cc1ccc(/C(=C(\CCCO)c2ccccc2)c2ccc(C3CCNCC3)cc2)cc1 [Compound 20k]
MS (Microsomal Stability) (%) rat [10]: 89.0%

Cc1ccc(/C(=C(\CCCO)c2ccccc2)c2ccc(C3CCN(C)CC3)cc2)cc1 [Compound 22f]
MS (Microsomal Stability) (%) human [1]: 97.0% | MS (Microsomal Stability) (%) rat [10]: 80.0%

OCCC/C(=C(\c1ccc(O)cc1)c1ccc(C2CCN(C3CC3)CC2)cc1)c1ccccc1 [Compound 22i]
MS (Microsomal Stability) (%) human [1]: 36.0%

CC(C)N1CCC(c2ccc(/C(=C(/CCCO)c3ccccc3)c3ccc(O)cc3)cc2)CC1 [Compound 22k]
Functional Assay at 10 μM (% of control), Cpds [9]: 0.77 % of control | Functional Assay, Cpds/Ref 5182 [9]: 0.83 | CYP inhibition (% of control) 1A2 [4]: >100 % of control | CYP inhibition (% of control) 2C9 [5]: 97 % of control | CYP inhibition (% of control) 2C19 [6]: >100 % of control | MS (Microsomal Stability) (%) rat [10]: 69.0%

CC(C)N1CCC(c2ccc(/C(=C(/CCCO)c3ccccc3)c3cccc(O)c3)cc2)CC1 [Compound 22m]
CYP inhibition (% of control) 1A2 [4]: 97 % of control | CYP inhibition (% of control) 2C19 [6]: >100 % of control | MS (Microsomal Stability) (%) dog [2]: 55.0%

OCCC/C(=C(\c1ccc(O)cc1)c1ccc(N2CCN(C3CCCC3)CC2)cc1)c1ccccc1 [Compound 22n]
CYP inhibition (% of control) 1A2 [4]: 99 % of control | CYP inhibition (% of control) 2C19 [6]: 83 % of control | MS (Microsomal Stability) (%) dog [2]: 72.0%

OCCC/C(=C(/c1ccc(C2CCN(C3CC3)CC2)cc1)c1cccc(O)c1)c1ccccc1 [Compound 22r]
CYP inhibition (% of control) 1A2 [4]: >100 % of control | CYP inhibition (% of control) 2C9 [5]: >100 % of control | CYP inhibition (% of control) 2C19 [6]: >100 % of control | MS (Microsomal Stability) (%) human [1]: 62.0%

CN1CCN(c2ccc(/C(=C(/CCCO)c3ccccc3)c3ccc(N)cc3)cc2)CC1 [Compound 26a, (Z)-5-(4-aminophenyl)-5-(4-(4-methylpiperazin-1-yl)phenyl)-4-phenylpent-4-en-1-ol]
Functional Assay, Cpds/Ref 5182 [9]: 0.84 | CYP inhibition (% of control) 1A2 [4]: >100 % of control | CYP inhibition (% of control) 2C9 [5]: 53.2 % of control | CYP inhibition (% of control) 2C19 [6]: 89 % of control | CYP inhibition (% of control) 2D6 [7]: 85.5 % of control | CYP inhibition (% of control) 3A4 [8]: 75.4 % of control

Nc1ccc(/C(=C(\CCCO)c2ccccc2)c2ccc(C3CCN(C4CC4)CC3)cc2)cc1 [Compound 26d]
CYP inhibition (% of control) 1A2 [4]: >100 % of control | CYP inhibition (% of control) 2C19 [6]: >100 % of control | Permeability Pampa [13]: 1.04 10^−6 cm/s

CC(C)N1CCN(c2ccc(/C(=C(/CCCO)c3ccccc3)c3ccc(NS(C)(=O)=O)cc3)cc2)CC1 [Compound 27a, (E)-N-(4-(5-hydroxy-1-(4-(4-isopropylpiperazin-1-yl)phenyl)-2-phenylpent-1-en-1-yl)phenyl)methanesulfonamide]
MS (Microsomal Stability) (%) rat [10]: 65.0%

OCCC/C(=C(\c1ccc(O)cc1)c1ccc(OCCN2C[C@H]3C[C@H]3[C@H]2CO)cc1)c1ccccc1 [Compound 38d]
IC50 [3]: > 10 µM | Functional Assay, Cpds/Ref 5182 [9]: 0.77 | CYP inhibition (% of control) 1A2 [4]: 79.2 % of control | CYP inhibition (% of control) 2C9 [5]: 55.3 % of control | CYP inhibition (% of control) 2C19 [6]: 58.8 % of control | CYP inhibition (% of control) 2D6 [7]: 54.3 % of control | CYP inhibition (% of control) 3A4 [8]: 57.6 % of control | MS (Microsomal Stability) (%) human [1]: 6.9% | MS (Microsomal Stability) (%) rat [10]: 11.7% | MS (Microsomal Stability) (%) mouse [14]: 11.8%

OCCC/C(=C(\c1ccc(O)cc1)c1ccc(OCCN2C[C@H]3CNC[C@H]3C2)cc1)c1ccccc1 [Compound 40, 4-((Z)-1-(4-(2-((3aR,6aS)-hexahydropyrrolo[3,4-c]pyrrol-2(1H)-yl)ethoxy)phenyl)-5-hydroxy-2-phenylpent-1-en-1-yl)phenol]
Functional Assay, Cpds/Ref 5182 [9]: 0.96 | MS (Microsomal Stability) (%) rat [10]: 72.0%

C[Si](C)(CN1CCCCC1)c1ccc(/C(=C(/CCCO)c2ccccc2)c2ccc(O)cc2)cc1 [Compound 42b]
Permeability Pampa [13]: 0.1 10^−6 cm/s

O=C(CN1CCCCC1)Nc1ccc(/C(=C(/CCCO)c2ccccc2)c2ccc(O)cc2)cc1 [Compound 44, (E)-N-(4-(5-hydroxy-1-(4-hydroxyphenyl)-2-phenylpent-1-en-1-yl)phenyl)-2-(piperidin-1-yl)acetamide]
AUCINF ([11]; IV 1 mg/kg): 0.34 μMh | AUCall ([11]; IV 1 mg/kg): 0.28 μMh | Cl(observed)/F ([11]; IV 1 mg/kg): 139 mL/min/kg | Vss ([11]; IV 1 mg/kg): 52.8 L/kg | t1/2 ([11]; IV 1 mg/kg): 4.4 h

[K+].[O-][Cl+3]([O-])([O-])[O-] [KClO4, reference compound]
block of radioactive iodine uptake increased in compound 18a-treated cells [15]: completely blocks
